Data on 1 compound can be found in patent publication US6794388B2, “Succinic acid salts of 5,7,14-triazatetracyclo[10.3.1.02,11.04,9] -hexadeca-1(11),3,5,7,9-pentaene and pharmaceutical compositions thereof” (Pfizer Inc., priority 2001, dated 2004).

Where a name gives a salt, the structure may show the parent alone.

Format in all cases: physicochemical
The nature of one data set: aqueous solubility. How it is done: (§1) Although in general the acid addition salts of 5,8,14-triazatetracyclo[10.3.1.0^2,11.0^4,9]-hexadeca-2(11),3,5,7,9-pentaene are all crystalline, the majority of those salts are so hygroscopic as to render them poor candidates for pharmaceutical formulation use.
(§2) The aqueous solubility of the anhydrous succinate salt has been measured under various conditions: >10 mg/mL in pH 4 buffer; >10 mg/mL in pH 10 buffer; >10 mg/mL in 0.1 N HCl; and >10 mg/mL in 0.1 N NaOH. The solubility of the anhydrous succinate salt has also been measured in various solvents: >10 mg/mL in methanol; 0.1 mg/mL in acetonitrile and <0.01 mg/mL in hexane. The hygroscopicity of the anhydrous succinate salt has also been measured under various conditions: 0.0% moisture gain at 20% Relative Humidity; 0.3% moisture gain at 40% Relative Humidity; 0.6% moisture gain at 60% Relative Humidity; 0.9% moisture gain at 80% Relative Humidity and 1.3% moisture gain at 95% Relative Humidity.

A short description of data set [1]: solubility in various solvents. The settings on record: organic solvent or mixture. How it is done: as §2
Data set [2] can be described thus: hygroscopicity (moisture gain on exposure to relative humidity in a moisture chamber). How it is done:
as §1, §2

The nature of data set [3]: solid state stability (light, elevated temperature, high humidity challenges). The settings on record: elevated temperatures.
Source text: as §1

The nature of data set [4]: native pH in aqueous solution.

Take `c1cnc2cc3c(cc2n1)C1CNCC3C1` [anhydrous succinate salt, Anhydrous Succinate Salt of 5,8,14-Triazatetracyclo[10.3.1.0^2,11.0^4,9]-hexadeca-2(11),3,5,7,9-pentaene]: the solubility in “aqueous solubility” (aqueous buffer, in 0.1 N NaOH) is > 10000 µg/mL; in the data set “aqueous solubility” (aqueous buffer, in pH 4 buffer), > 10000 µg/mL; in the data set “aqueous solubility” (aqueous buffer, in pH 10 buffer) it was > 10000 µg/mL; in the data set “aqueous solubility” (simulated gastric fluid, in 0.1 N HCl), > 10000 µg/mL; in the data set “aqueous solubility” (water), 442000 µg/mL; in data set [1] (in acetonitrile), 100 µg/mL. The solubility in data set [1] (in hexane) was < 10 µg/mL; in data set [1] (in methanol) it was > 10000 µg/mL. Besides, the “hygroscopicity, moisture gain” value was determined as 0.0% in data set [2] (at 20% Relative Humidity); 0.3% in data set [2] (at 40% Relative Humidity); 0.6% in data set [2] (at 60% Relative Humidity); 0.9% in data set [2] (at 80% Relative Humidity); 1.3% in data set [2] (at 95% Relative Humidity). Moreover, the hygroscopicity entry is reported as “approximately 1.97%” in data set [2] (at 90% relative humidity) and “approximately 1.97 % wt/wt” in data set [2] (exposure to 90% relative humidity in a moisture chamber). Also, in data set [3], the solid state stability result was “excellent solid state stability”. Further, the “native pH in aqueous solution” value in data set [4] is reported as 4.7.

What is called solubility is the concentration that dissolves in the medium under given conditions.
